# Data: US20260000655A1, “PHARMACEUTICAL COMPOSITION FOR USE IN PREVENTION OR TREATMENT OF LIFESTYLE-RELATED DISEASE” (priority 2022, published 2026)
# Columns and labels:
# [1] = test system: liver cell model HepG2 cells; experiment: Cytotoxicity (MTT reagent); assay type: cell-based, human; settings: HPH-15 1 μM, 10 μM or 50 μM, 24 hours
# Description: It was examined whether using HPH-15 as a drug caused any cytotoxicity.
# The myotube cell model L6-GLUT4myc, the liver cell model HepG2 cells, and the adipocyte model 3T3-L1 used in Example 1 were each seeded onto a 24-well plate (1×10^5 cells/well, […] of culture liquid) and cultured overnight. Then, a DMSO solution (1%) containing HPH-15 (final concentration: 1 μM, 10 μM or 50 μM) was added to the medium, and the cells were further cultured for 24 hours. As a control, only DMSO solution (1%) was added, and the cells were cultured for 24 hours in the same manner. Next, […] of MTT reagent (3-(4,5-dimethyl-2-thiazolyl)-2,5-diphenyl-2H-tetrazolium bromide: 1.1 mg/mL: Dojindo Laboratories) was added to each well, and the cells were further cultured for 4 hours. After collecting the precipitated crystals, the supernatant was removed and DMSO ([…]) was added to completely dissolve the crystals. Cytotoxicity was evaluated by measuring the absorbance (550 nm) of the solution and determining the number of viable cells.
# [2] = test system: adenosine monophosphate-activated protein kinase (AMPK); experiment: Activation of AMPK (p-AMPK/AMPK, Western blotting) in myotube cell model L6-GLUT4myc; assay type: cell-based, rat; settings: HPH-15 at 1/200th the concentration of metformin (2 mM), 24 hours
# Text: (§1) The tissues involved in glucose uptake and glucose metabolism are mainly the muscle, the liver, and the fat. Thus, using a cell model of each tissue, the relationship between HPH-15 and activation of adenosine monophosphate-activated protein kinase (AMPK) was examined. Note that AMPK is known as a therapeutic target for diabetes. AMPK acts as an energy sensor, and when it detects a decrease in ATP serving as an intracellular energy source, it suppresses the synthesis of glucose, fats, and proteins and produces ATP. Exercise therapy for diabetes is based on this mechanism. Further, AMPK has been drawing attention as a factor that improves insulin resistance.
# (§2) As a muscle cell model to be used, rat myoblast cell line L6-GLUT4myc (myoblasts expressing myc-tagged GLUT4) was cultured in a minimal essential medium a-MEM (10% FBS) and differentiated into myotubes. Differentiation into myotubes was performed by culturing L6-GLUT4 cells in a-MEM (10% FBS) and then changing the medium to a-MEM (2% FBS), followed by culturing for 6 days. Human HepG2 cell line was used as a liver cell model. As an adipocyte model to be used, mouse 3T3-L1 preadipocyte cell line was differentiated into adipocytes. Differentiation into adipocytes was performed as follows. […]
# (§3) Next, bands of AMPK and p-AMPK were quantified using ImageJ to determine a ratio of activated AMPK relative to AMPK (p-AMPK/AMPK).
# [3] = test system: high-fat diet-induced obesity model mice; experiment: Organ weight in mouse; assay type: in vivo; settings: HPH-15 100 mg/kg orally once a day 28 days; compared to olive oil
# Description: The changes in organ weights when HPH-15 was administered were examined.
# High-fat diet-induced obesity model mice were prepared in the same manner as in Example 7. Then, HPH-15 (10 mg/kg or 100 mg/kg, […]) dissolved in olive oil or metformin (300 mg/kg, […]) was orally administered once a day for 28 days. Olive oil alone was administered as a control. After 28 days of administration of each, the liver, muscle, subcutaneous fat, and epididymis of the high-fat diet-induced obesity model mice were excised and weighed.
# [4] = test system: adenosine monophosphate-activated protein kinase (AMPK); experiment: Activation of AMPK (p-AMPK/AMPK, Western blotting) in adipocyte model 3T3-L1; assay type: cell-based, mouse; settings: 3T3-L1 adipocytes; HPH-15 at 1/200th the concentration of metformin (2 mM); 24 hours
# Text: as §1, §2, §3
smiles,measurement,setting,value
CC(C)(C)SCCNC(=S)c1cccc(C(=S)NCCSC(C)(C)C)n1 [HPH-15],cytotoxicity (number of viable cells),[1],no cytotoxicity was confirmed
same,AMPK activation (p-AMPK/AMPK) compared to when metformin was used,[2],approximately 75%
same,reduction of subcutaneous fat weight,[3],approximately 50%
same,AMPK activation (p-AMPK/AMPK) compared to when metformin was used,[4],approximately 170%
